Measurements reported in patent US9193978B2, “Production of alkenes by combined enzymatic conversion of 3-hydroxyalkanoic acids” (Scientist of Fortune, S.A., priority 2010, dated 2015).
Each block holds one molecule with its values, some of them ahead of it.

Assays:
[1] = target: T1, Thermoplasma acidophilum MDP decarboxylase, SEQ ID NO: 2 (Thermoplasma acidophilum, UniProt Q9HIN1); assay: Phosphotransferase activity (ADP release from 3-hydroxyisovalerate and ATP), pyruvate kinase/lactate dehydrogenase coupled assay; type: biochemical; settings: 40° C., pH 7.0, 5 mM ATP, 0-50 mM HIV
T1 construct: Th; His6 (inserted after the initiator methionine) (N); made in house; host or cells: Escherichia coli BL21(DE3)
T1 sequence (Q9HIN1 1-318): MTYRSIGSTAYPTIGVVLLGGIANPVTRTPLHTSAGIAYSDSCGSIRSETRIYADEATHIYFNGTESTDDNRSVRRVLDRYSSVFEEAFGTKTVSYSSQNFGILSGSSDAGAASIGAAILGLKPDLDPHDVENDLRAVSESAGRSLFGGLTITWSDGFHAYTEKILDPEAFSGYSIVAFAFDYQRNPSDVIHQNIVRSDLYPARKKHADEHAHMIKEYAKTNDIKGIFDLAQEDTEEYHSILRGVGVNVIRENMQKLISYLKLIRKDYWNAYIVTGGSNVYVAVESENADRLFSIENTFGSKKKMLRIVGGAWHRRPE
Protocol: (§1) The release of ADP that is associated with IBN production from HIV was quantified using the pyruvate kinase/lactate dehydrogenase coupled assay (FIG. 10). The MDP decarboxylases from P. torridus (SEQ ID NO:1), Th. Acidophilum (SEQ ID NO:2), S. infantarius (SEQ ID NO:7), S. mitis (SEQ ID NO:10) were evaluated for their ability to phosphorylate HIV, releasing ADP.
(§2) The studied enzymatic reaction was carried out under the following conditions at 40° C.:
(§3) 0.5 mM Phosphoenolpyruvate
(§4) 3 U/ml Lactate dehydrogenase
(§5) 0-50 mM 3-Hydroxyisovalerate (HIV)
(§6) The pH was adjusted to 7.0.
(§7) Each assay was started by addition of particular enzyme (at a concentration from 0.05 to 1 mg/ml) and the disappearance of NADH was monitored by following the absorbance at 340 nm.
(§8) Assays with MDP decarboxylases from the P. torridus phylum as well from the Streptococcus genus gave rise to a reproducible increase in ADP production in the presence of HIV.

[2] = target: T2, Picrophilus torridus MDP decarboxylase, SEQ ID NO: 1 (Picrophilus torridus, UniProt Q6KZB1); assay: as above; type: biochemical; settings: 40° C., pH 7.0, 5 mM ATP, 0-50 mM HIV
T2 construct: His6 (inserted after the initiator methionine) (N); made in house; host or cells: Escherichia coli BL21(DE3)
T2 sequence (Q6KZB1 1-324): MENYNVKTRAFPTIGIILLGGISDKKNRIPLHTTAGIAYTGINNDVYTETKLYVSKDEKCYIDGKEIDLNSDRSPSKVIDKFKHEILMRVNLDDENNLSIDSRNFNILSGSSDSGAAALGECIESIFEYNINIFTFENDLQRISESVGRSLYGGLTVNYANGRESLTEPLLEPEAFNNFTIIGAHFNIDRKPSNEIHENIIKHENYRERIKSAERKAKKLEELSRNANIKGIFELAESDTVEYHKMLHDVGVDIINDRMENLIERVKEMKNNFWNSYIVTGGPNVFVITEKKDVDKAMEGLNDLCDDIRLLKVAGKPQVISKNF
Source text: FIG. 12: Isobutene production from 3-hydroxyisovalerate in the following assays: • Without enzyme • In the presence of S. mitis MDP decarboxylase (SEQ ID NO:10) • In the presence of Th. acidophilum MDP decarboxylase (SEQ ID NO:2) • In the presence of both Th. acidophilum (SEQ ID NO:2) and S. mitis (SEQ ID NO:10) enzymes.
as §1, §2, §3, §4, §5, §6, §7, §8

[3] = target: T3, Streptococcus mitis MDP decarboxylase, SEQ ID NO: 10 (Streptococcus mitis, UniProt A0ACG7RFV4); assay: Kinetic parameters of isobutene production from 3-phosphonoxyisovalerate (GC); type: biochemical; settings: pH 7.5, 37° C., 44 h, 40 mM ATP, 0-100 mM 3-phosphonoxyisovalerate
Protocol: The kinetic parameters of isobutene production were measured under the following conditions:
0-100 mM 3-phosphonoxyisovalerate
(§9) The pH was adjusted to 7.5
The reaction was initiated by addition of 1 mg of purified MDP decarboxylase from S. mitis (SEQ ID NO:10) to 0.5 ml of reaction mixture. The mixture was then incubated without shaking at 37° C. for 44 h in a sealed vial of 2 ml (Interchim).
(§10) One ml of the gaseous phase was collected and injected into a Varian 430-GC gas chromatograph equipped with an FID detector and a CP SilicaPlot column (Varian). Commercial isobutene was used as reference.

[4] = target: T3, Streptococcus mitis MDP decarboxylase, SEQ ID NO: 10; assay: Effect of ATP on isobutene production from 3-phosphonoxyisovalerate (GC); type: biochemical; settings: 10 mM ATP vs 0 mM ATP, 25 mM PIV, pH 7.5, 37° C., 26 h
Protocol: The assays of isobutene production were carried out under the following conditions:
0 mM ATP (assay No1 and No2)
10 mM ATP (assay No3 and No4)
25 mM 3-phosphonoxyisovalerate
as §9
The reaction was initiated by addition of 2 mg of purified MDP decarboxylase from S. mitis (SEQ ID NO:10) to 0.5 ml of reaction mixture. Control reactions were run in the absence of enzyme (assays No1 and No3).
The mixture was incubated without shaking at 37° C. for 26 h in a sealed vial of 2 ml (Interchim).
as §10

[5] = substrate: CC(C)(O)CC(=O)O; assay: Phosphotransferase activity (ADP release from 3-hydroxyisovalerate and ATP), pyruvate kinase/lactate dehydrogenase coupled assay; type: biochemical, Streptococcus infantarius; settings: other: 40° C., pH 7.0, 5 mM ATP, 0-50 mM HIV
Protocol: as §1, §2, §3, §4, §5, §6, §7, §8

Km [1]: 4.02 mM
Km [2]: 9.17 mM
Molecule: CC(C)(O)CC(=O)O [3-hydroxyisovalerate]

Molecule: CC(C)(CC(=O)O)OP(=O)(O)O [3-phosphonoxyisovalerate]
Km [3]: > 60 mM
kcat [3]: at least 1.3×10^−3 sec^−1

Molecule: Nc1ncnc2c1ncn2[C@@H]1O[C@H](COP(=O)(O)OP(=O)(O)OP(=O)(O)O)[C@@H](O)[C@H]1O [ATP]
increase of isobutene production from 3-phosphonoxyisovalerate (PIV) on addition of ATP [4]: 120 fold

B1: Streptococcus infantarius MDP decarboxylase, SEQ ID NO: 7 (Streptococcus infantarius subsp. infantarius ATCC BAA-102) (protein)
chain: MDRKIVTVKSYANIAIIKYWGKADAAKMIPATSSISLTLENMFTTTSVSFLPDSASHDEFYINGVLQDDKEHAKISAIIDQYRGQRSEYVKVETSNNMPTAAGLSSSSSGLSALVKACNELFETGLTRAELAQKAKFASGSSSRSFFGPLAAWDKDSGEVYPVQTDLKLAMIMLVLSDSKKSISSREGMKRCVETSTTFADWVKQSEQDYKDMLGYLKNNDFERVGELTERNALAMHDTNTHANPPFNYLTEESYKAMEFVKQLRSEGEKCYFTMDAGPNVKVLCLEEDLERLTKRFEENYRVIVSRTKEL
Km [5]: 13.4 mM
kcat [5]: 0.03 s⁻¹
kcat/Km [5]: 2 M⁻¹ s⁻¹
